System: M2R mouse melanoma cells
Test: Phototoxicity on M2R cells (Example 10, [3H]-thymidine incorporation)
Assay type: cell-based
Details: pigments dissolved directly in culture medium containing 10% serum
Procedure: The diluted pigments were added and the cells were incubated in the dark for four hours at 37° C. Prior to illumination, the cells were washed once and replaced with fresh culture medium. The plates were then illuminated from the bottom for 10 minutes at room temperature and placed in the culture incubator at 37° C. in the dark. […] The following control systems were used: Dark control—untreated cells kept in the dark; Light control—cells not treated with sensitizer that were illuminated; Dark toxicity—cells treated with pigment but kept in the dark.

Pd-Bacteriopheophorbide a ethyl ester [Pd-BPheid-ethyl ester, reference compound]
concentration up to which not active at all (highest concentration tested): > 1 µM

Source: patent publication US6569846B1, “Palladium-substituted bacteriochlorophyll derivatives and use thereof” (Yeda Research and Development Co. Ltd., priority 1998, dated 2003)
